Experimental data: ChEMBL document CHEMBL3885881, “DrugMatrix”

Species: Rattus norvegicus
Assay: DrugMatrix - Regimen: Daily Repeat
Type: toxicity, organism-based, Sprague-Dawley
Set-up: regimen Daily Repeat, gender Male, age 6-8 weeks
Conditions: in vivo, po, route oral GAVAGE, […]; for ABSOLUTE BASOPHIL / ABSOLUTE EOSINOPHIL / ABSOLUTE LYMPHOCYTE / ABSOLUTE MONOCYTE / ABSOLUTE SEGMENTED NEUTROPHIL / BASOPHIL / EOSINOPHIL / ERYTHROCYTE COUNT / HEMATOCRIT / HEMOGLOBIN / LEUKOCYTE COUNT / LYMPHOCYTE / MEAN CORPUSCULAR HEMOGLOBIN / MEAN CORPUSCULAR HEMOGLOBIN CONCENTRATION / MEAN CORPUSCULAR VOLUME / MONOCYTE / NEUTROPHIL / NUCLEATED RED BLOOD CELLS / PLATELET COUNT: tissue Blood; for ALANINE AMINOTRANSFERASE / ALBUMIN / ALKALINE PHOSPHATASE / ASPARTATE AMINOTRANSFERASE / BLOOD UREA NITROGEN / CARBON DIOXIDE / CHLORIDE / CHOLESTEROL / CREATINE PHOSPHOKINASE / CREATININE / GLUCOSE / LACTATE DEHYDROGENASE / LIPASE / PHOSPHORUS / POTASSIUM / SODIUM / TOTAL BILIRUBIN / TOTAL PROTEIN / URIC ACID: tissue Plasma
[1] = 0 mg/kg, 72 h, dose level Control, time 3 day
[2] = 0 mg/kg, 120 h, dose level Control, time 5 day
[3] = 100 mg/kg, 72 h, dose level Low, time 3 day

CC(=O)Nc1cccc(O)c1 [METACETAMOL]
ABSOLUTE BASOPHIL [1]: 0 CELLS/uL | ABSOLUTE EOSINOPHIL [1]: 0 CELLS/uL | ABSOLUTE LYMPHOCYTE [1]: 14687.67 CELLS/uL | ABSOLUTE MONOCYTE [1]: 164 CELLS/uL | ABSOLUTE SEGMENTED NEUTROPHIL [1]: 1748.33 CELLS/uL | BASOPHIL [1]: 0% | EOSINOPHIL [1]: 0% | ERYTHROCYTE COUNT [1]: 5.51 x10E6/uL | HEMATOCRIT [1]: 33.68% | HEMOGLOBIN [1]: 13.4 G/DL | LEUKOCYTE COUNT [1]: 16.6 x10E3/uL | LYMPHOCYTE [1]: 88.83% | MEAN CORPUSCULAR HEMOGLOBIN [1]: 24.47 pg | MEAN CORPUSCULAR HEMOGLOBIN CONCENTRATION [1]: 39.82 G/DL | MEAN CORPUSCULAR VOLUME [1]: 61.23 fL | MONOCYTE [1]: 0.83% | NEUTROPHIL [1]: 10.33% | NUCLEATED RED BLOOD CELLS [1]: 0 /100WBC | PLATELET COUNT [1]: 1329.67 x10E3/uL | ALANINE AMINOTRANSFERASE [1]: 61.33 u/L | ALBUMIN [1]: 4.18 G/DL | ALKALINE PHOSPHATASE [1]: 332.5 u/L | ASPARTATE AMINOTRANSFERASE [1]: 98.33 u/L | BLOOD UREA NITROGEN [1]: 15.83 mg/dL | CARBON DIOXIDE [1]: 27.83 mmol/L | CHLORIDE [1]: 100 MEQ/L | CHOLESTEROL [1]: 76.17 mg/dL | CREATINE PHOSPHOKINASE [1]: 729.17 u/L | CREATININE [1]: 0.21 mg/dL | GLUCOSE [1]: 151.83 mg/dL | LACTATE DEHYDROGENASE [1]: 484.67 u/L | LIPASE [1]: 10 u/L | PHOSPHORUS [1]: 11.3 mg/dL | POTASSIUM [1]: 6.1 MEQ/L | SODIUM [1]: 142.9 MEQ/L | TOTAL BILIRUBIN [1]: 0.23 mg/dL | TOTAL PROTEIN [1]: 5.68 G/DL | URIC ACID [1]: 1.75 mg/dL | ABSOLUTE BASOPHIL [2]: 0 CELLS/uL | ABSOLUTE EOSINOPHIL [2]: 58.67 CELLS/uL | ABSOLUTE LYMPHOCYTE [2]: 15950.83 CELLS/uL | ABSOLUTE MONOCYTE [2]: 172.5 CELLS/uL | ABSOLUTE SEGMENTED NEUTROPHIL [2]: 2551.33 CELLS/uL | BASOPHIL [2]: 0% | EOSINOPHIL [2]: 0.33% | ERYTHROCYTE COUNT [2]: 5.5 x10E6/uL | HEMATOCRIT [2]: 34.05% | HEMOGLOBIN [2]: 13.42 G/DL | LEUKOCYTE COUNT [2]: 18.73 x10E3/uL | LYMPHOCYTE [2]: 84.5% | MEAN CORPUSCULAR HEMOGLOBIN [2]: 24.42 pg | MEAN CORPUSCULAR HEMOGLOBIN CONCENTRATION [2]: 39.42 G/DL | MEAN CORPUSCULAR VOLUME [2]: 61.97 fL | MONOCYTE [2]: 1% | NEUTROPHIL [2]: 14.17% | NUCLEATED RED BLOOD CELLS [2]: 0.33 /100WBC | PLATELET COUNT [2]: 1143.17 x10E3/uL | ALANINE AMINOTRANSFERASE [2]: 57 u/L | ALBUMIN [2]: 4.17 G/DL | ALKALINE PHOSPHATASE [2]: 347.33 u/L | ASPARTATE AMINOTRANSFERASE [2]: 93.67 u/L | BLOOD UREA NITROGEN [2]: 15.67 mg/dL | CARBON DIOXIDE [2]: 27.17 mmol/L | CHLORIDE [2]: 104.33 MEQ/L | CHOLESTEROL [2]: 69.5 mg/dL | CREATINE PHOSPHOKINASE [2]: 317.17 u/L | CREATININE [2]: 0.2 mg/dL | GLUCOSE [2]: 162.33 mg/dL | LACTATE DEHYDROGENASE [2]: 408.67 u/L | LIPASE [2]: 10.17 u/L | PHOSPHORUS [2]: 11.08 mg/dL | POTASSIUM [2]: 6.36 MEQ/L | SODIUM [2]: 146.07 MEQ/L | TOTAL BILIRUBIN [2]: 0.22 mg/dL | TOTAL PROTEIN [2]: 5.92 G/DL | URIC ACID [2]: 1.47 mg/dL | ABSOLUTE BASOPHIL [3]: 0 CELLS/uL | ABSOLUTE EOSINOPHIL [3]: 56.67 CELLS/uL | ABSOLUTE LYMPHOCYTE [3]: 16234.67 CELLS/uL | ABSOLUTE MONOCYTE [3]: 197 CELLS/uL | ABSOLUTE SEGMENTED NEUTROPHIL [3]: 1911.67 CELLS/uL | BASOPHIL [3]: 0% | EOSINOPHIL [3]: 0.33% | ERYTHROCYTE COUNT [3]: 5.37 x10E6/uL | HEMATOCRIT [3]: 33.67% | HEMOGLOBIN [3]: 13.43 G/DL | LEUKOCYTE COUNT [3]: 18.4 x10E3/uL | LYMPHOCYTE [3]: 88.33% | MEAN CORPUSCULAR HEMOGLOBIN [3]: 25 pg | MEAN CORPUSCULAR HEMOGLOBIN CONCENTRATION [3]: 39.93 G/DL | MEAN CORPUSCULAR VOLUME [3]: 62.73 fL | MONOCYTE [3]: 1% | NEUTROPHIL [3]: 10.33% | NUCLEATED RED BLOOD CELLS [3]: 0 /100WBC | PLATELET COUNT [3]: 1217 x10E3/uL | ALANINE AMINOTRANSFERASE [3]: 68.67 u/L | ALBUMIN [3]: 4.23 G/DL | ALKALINE PHOSPHATASE [3]: 369.67 u/L | ASPARTATE AMINOTRANSFERASE [3]: 101.67 u/L | BLOOD UREA NITROGEN [3]: 14.67 mg/dL | CARBON DIOXIDE [3]: 31 mmol/L | CHLORIDE [3]: 100.67 MEQ/L | CHOLESTEROL [3]: 76.33 mg/dL | CREATINE PHOSPHOKINASE [3]: 371.33 u/L | CREATININE [3]: 0.22 mg/dL | GLUCOSE [3]: 142.67 mg/dL | LACTATE DEHYDROGENASE [3]: 561.67 u/L | LIPASE [3]: 10.33 u/L | PHOSPHORUS [3]: 11.3 mg/dL | POTASSIUM [3]: 6.59 MEQ/L | SODIUM [3]: 143.83 MEQ/L | TOTAL BILIRUBIN [3]: 0.23 mg/dL | TOTAL PROTEIN [3]: 5.8 G/DL | URIC ACID [3]: 1.7 mg/dL
